Several values for one entry are separate records, joined by “and”; a condition that tells them apart may be missing. Equal values may be shown once.
How the values were obtained:
[1] = system: ovalbumin-sensitized guinea pigs; test: Active anaphylaxis in the guinea pig: conjunctival symptoms after OVA challenge; assay type: in vivo; details: 0.4% eye drops, 30 μl/eye 45 min before OVA
Experimental: Male Dunkin-Hartley guinea pigs (250-300 g) were purchased from Charles River (Calco, Italy). Animal procedures followed the guidelines of the University of Bologna Animal Care and Use Committee and conformed to the Association for Research in Vision and Ophthalmology (ARVO) resolution on the use of animals in research.
(§1) Male Dunkin-Hartley guinea pigs were actively immunized by i.p. injection of 200 μg OVA in 2 ml saline with 40 mg aluminum hydroxide (positive control) or saline alone (negative control), as previously reported. […] Negative controls received saline alone.
(§2) Conjunctival clinical symptoms were rated blind on both eyes using the following scale: 0, no symptoms; 1, slight conjunctival redness with or without tears; 2, mild conjunctival redness with tears and mild chemosis; 3, mild conjunctival redness with tears and moderate chemosis; 4, severe conjunctival redness with tears and partial lid eversion; 5, severe conjunctival redness with tears and lids more than half closed. The animals were euthanized 24 h after OVA challenge by i.p. injection of Tanax® (3 ml/kg; Hoechst AG, Frankfurt-am-Main, Germany) and the conjunctivas were carefully excised and each was divided into two samples for subsequent investigations. […] The number of eosinophils in each field was counted under light microscopy (×500 magnification). In the other sample eosinophil peroxidase activity was measured.

PGE2 = test: Prostaglandin E2 (PGE2) measurement in aqueous humor; assay type: in vivo, Rabbit; details: for PGE2 in aqueous humor at the second paracentesis, Mean: group mean; for PGE2 in aqueous humor at the second paracentesis: individual eye sample, listed as BOL; for PGE2 in aqueous humor, statistical comparison with CTR: p<0.05
Experimental: Each rabbit was placed in a restraint device and tagged with the alphanumeric code. The formulations were instilled (50 μl) into the conjunctival sac of both eyes 180, 120, 90 and 30 min before the first paracentesis; then 15, 30, 90 min after the first paracentesis. To perform the first paracentesis the animals were anaesthetized by intravenous injection of 5 mg/kg Zoletil® (Virbac; 2.5 mg/kg tiletamine HCl and 2.5 mg/kg zolazepam HCl) and one drop of local anesthetic (Novesina®, Novartis) was administered to the eye. Anterior chamber paracentesis was performed with a 26 G needle attached to a tuberculin syringe; the needle was introduced into the anterior chamber through the cornea, taking care not to damage the tissues. Two hours after the first paracentesis, the animals were sacrificed with 0.4 ml Tanax® (Intervet International B.V.) and the second paracentesis was performed. About 100 μl of aqueous humor were removed at the second paracentesis. Aqueous humor was immediately split in four aliquots and stored at −80° C. until analysis. Then both eyes were enucleated and the iris-ciliary body was carefully excised, placed in polypropylene tubes, and stored at −80° C. until analysis.
For the quantitative determination of PGE2 in the aqueous humor we used the PGE2 Immunoassay kit (R&D Systems; Cat. No. KGE004; Lot. No. 240010). Eleven microliters or 16 μl of aqueous humor were diluted to 110 μl or 160 μl with the calibrator diluent solution provided with the kit. One hundred microliters of samples and of standards were load into a 96-well plate and recorded in a plate layout. Samples were treated following the assay procedure described in the kit. A microplate reader (GDV, Italy; model DV 990 B/V6) set at 450 nm (wavelength correction at 540 nm) was used for making the calibration and analyzing the samples.

[2] = conditions similar to the in vitro models used [28]; cited from earlier work
ICAM-1 = test: IL-4 and TNF-α-induced ICAM-1 expression in HConEpiC cell lysates (Luminex); assay type: cell-based, human; details: all doses 10-1000 nM, 24 h
Experimental: Primary human conjunctival epithelial cells (HConEpiC) were seeded in two 24-well plates in EpiLife medium+1% Human Corneal Growth Supplement (HCGS; contains bovine pituitary extract, bovine insulin, hydrocortisone, bovine transferrin and mouse epidermal growth factor) at 2×10^4 cells/well. When the cells were confluent (4-5 days after seeding), they were incubated in EpiLife GF medium without glucocorticoids (EpiLife basic medium supplemented with 50 μg/ml bovine pituitary extract, 5 μg/ml bovine insulin and 5 ng/ml mouse epidermal growth factor) for 18 h. […] Culture medium was collected. Cytokine analysis was performed on the culture medium using 2 separate cytokine/chemokine Luminex kits (Kit 1: G-CSF, GM-CSF, IL-6, IL-8, IP-10, MCP-1, RANTES; Kit 2: eotaxin-3, CTACK). ICAM-1 expression was determined in cell lysates using a Luminex kit.
Median fluorescence intensity (MFI) was used to obtain the concentration of each cytokine and ICAM-1 in pg/ml based on the standard curve of each cytokine assayed by Luminex using the StatLIA software. ICAM-1 expression was expressed as pg/mg protein. All data were expressed as mean±SEM. Statistical analysis was performed using a two-way ANOVA-Contrast test with Factor 1 being drug and Factor 2 being dose (JMP 8 software, SAS Institute, Cary, N.C.). […] Data were analyzed either directly or after Box-Cox transformations (9, 10).

eosinophil peroxidase = test: Eosinophil peroxidase assay in guinea pig conjunctiva; assay type: in vivo; details: 0.4% eye drops; 24 h after antigen challenge
Experimental: as §1
as §2, with “closed.” for “closed. The animals were euthanized 24 h after OVA challenge by i.p. injection of Tanax® (3 ml/kg; Hoechst AG, Frankfurt-am-Main, Germany) and the conjunctivas were carefully excised and each was divided into two samples for subsequent investigations.”
Eosinophil peroxidase was assayed as previously reported in conjunctival samples obtained as above described. […] Absorbance was measured using a spectrophotometer (JASCO V-530, Jasco, UK) at 490 nm. […] Eosinophil peroxidase activity was measured according to the method of Strath et al., which is based on the oxidation of o-phenylenediamine by eosinophil peroxidase in the presence of hydrogen peroxide. One unit corresponds to 1 mmol of hydrogen peroxide decomposed for […], and the results were expressed as eosinophil peroxidase levels (mU of enzyme/mg wet tissue).

[3] = system: ovalbumin-sensitized guinea pigs; test: Conjunctival eosinophil infiltration (histology) in OVA-challenged guinea pigs; assay type: in vivo, guinea pig; details: 0.4% eye drops; 24 h after OVA challenge; vs OVA-treated animals
Experimental: as §1
Conjunctival clinical symptoms were rated blind on both eyes using the following scale: 0, no symptoms; 1, slight conjunctival redness with or without tears; 2, mild conjunctival redness with tears and mild chemosis; 3, mild conjunctival redness with tears and moderate chemosis; 4, severe conjunctival redness with tears and partial lid eversion; 5, severe conjunctival redness with tears and lids more than half closed. The animals were euthanized 24 h after OVA challenge by i.p. injection of Tanax® (3 ml/kg; Hoechst AG, Frankfurt-am-Main, Germany) and the conjunctivas were carefully excised and each was divided into two samples for subsequent investigations. One sample was fixed in 10% buffered paraformaldehyde solution and paraffin-embedded; slides, 6 μm thick, were stained as described. The number of eosinophils in each field was counted under light microscopy (×500 magnification). In the other sample eosinophil peroxidase activity was measured.

SMILES: Cc1ccc2c(NC[C@](O)(CC(C)(C)c3cc(F)cc4c3OCC4)C(F)(F)F)cccc2n1 [BOL-303242-X, (R)-1,1,1-Trifluoro-4-(5-fluoro-2,3-dihydrobenzofuran-7-yl)-4-methyl-2-{[(2-methyl-5-quinolyl)amino]methyl}pentan-2-ol]
- Conjunctival symptoms (swelling of the eyelids and chemosis), early phase ([1]; 1 h after challenge): significantly reduced
- Severity of conjunctival symptoms, late phase ([1]; 6 h after challenge): significant reduction in the severity of conjunctival symptoms
- PGE2 in aqueous humor at the second paracentesis, Mean (PGE2; 0.1% topical): 1.452 ng/mL
- PGE2 in aqueous humor at the second paracentesis (PGE2; 0.1% topical): 1.62 ng/mL and 1.88 ng/mL and 2.15 ng/mL and 0.70 ng/mL and 1.34 ng/mL and 1.03 ng/mL
- PGE2 in aqueous humor, statistical comparison with CTR (PGE2; 0.1% topical): statistically significant versus CTR
- PGE2 in aqueous humor at the second paracentesis, Mean (PGE2; 0.5% topical): 1.384 ng/mL
- PGE2 in aqueous humor at the second paracentesis (PGE2; 0.5% topical): 2.31 ng/mL and 2.59 ng/mL and 0.53 ng/mL and 0.75 ng/mL and 0.80 ng/mL and 1.62 ng/mL and 1.09 ng/mL
- PGE2 in aqueous humor, statistical comparison with CTR (PGE2; 0.5% topical): statistically significant versus CTR
- PGE2 in aqueous humor at the second paracentesis, Mean (PGE2; 1% topical): 2.168 ng/mL
- PGE2 in aqueous humor at the second paracentesis (PGE2; 1% topical): 0.50 ng/mL and 1.87 ng/mL and 1.71 ng/mL and 4.04 ng/mL and 1.11 ng/mL and 3.78 ng/mL
- Stability of the compound [2]: stable
- IL-4 plus TNF-α-induced ICAM-1 expression in cell lysates (ICAM-1): significantly decreased
- Conjunctival eosinophil peroxidase activity (eosinophil peroxidase): noteworthy reduction
- Eosinophil infiltration of the conjunctiva (histology) [3]: much less marked

— US20110104159A1, “COMPOSITIONS AND METHODS FOR TREATING, CONTROLLING, REDUCING, AMELIORATING, OR PREVENTING ALLERGY” (priority 2006, published 2011)
